#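 Compound exposure: 48 hours, 5 concentrations, 96-well plates. GI50 = concentration required for 50% inhibition of growth.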 Activity calls are given as the source filed them. Rule as the data show it: active = GI50 up to about 1.1 µM and inactive = higher.
# Tests used:
# Experiment in all cases: NCI-60 cell line screen, 48 h
# 786-0 = system: 786-0
# A498 = system: A498
# A549 = system: A549
# ACHN = system: ACHN
# BT-549 = system: BT-549
# CAKI-1 = system: CAKI-1
# CCRF-CEM = system: CCRF-CEM
# EKVX = system: EKVX
# HCC 2998 = system: HCC 2998
# HCT-116 = system: HCT-116
# HCT-15 = system: HCT-15
# HL-60 = system: HL-60
# HOP-62 = system: HOP-62
# HOP-92 = system: HOP-92
# HT-29 = system: HT-29
# Hs-578T = system: Hs-578T
# IGROV-1 = system: IGROV-1
# KM12 = system: KM12
# LOX IMVI = system: LOX IMVI
# M14 = system: M14
# MCF7 = system: MCF7
# MDA-MB-231 = system: MDA-MB-231
# MDA-MB-435 = system: MDA-MB-435
# Malme-3M = system: Malme-3M
# NCI-H226 = system: NCI-H226
# NCI-H23 = system: NCI-H23
# NCI-H460 = system: NCI-H460
# NCI-H522 = system: NCI-H522
# NCI/ADR-RES = system: NCI/ADR-RES
# OVCAR-3 = system: OVCAR-3
# OVCAR-4 = system: OVCAR-4
# OVCAR-5 = system: OVCAR-5
# OVCAR-8 = system: OVCAR-8
# PC-3 = system: PC-3
# RPMI-8226 = system: RPMI-8226
# RXF 393 = system: RXF 393
# SF-268 = system: SF-268
# SF-295 = system: SF-295
# SF-539 = system: SF-539
# SK-MEL-28 = system: SK-MEL-28
# SK-MEL-2 = system: SK-MEL-2
# SK-MEL-5 = system: SK-MEL-5
# SK-OV-3 = system: SK-OV-3
# SN12C = system: SN12C
# SNB-75 = system: SNB-75
# SR = system: SR
# SW-620 = system: SW-620
# T47D = system: T47D
# TK-10 = system: TK-10
# U-251 = system: U-251
# UACC-257 = system: UACC-257
# UACC-62 = system: UACC-62
# UO-31 = system: UO-31
# COLO 205 = system: COLO 205
# K562 = system: K562
# MOLT-4 = system: MOLT-4
# SNB-19 = system: SNB-19
# DU-145 = system: DU-145
structure (smiles),measurement,setting,value
CCOc1ccc(NC(=O)/C(=N\N)C(C(=O)OC)c2nc3ccc(Cl)cc3nc2O)cc1 (stereo unspecified),GI50,786-0,> 100 µM (inactive)
same,GI50,A498,> 100 µM (inactive)
same,GI50,A549,> 100 µM (inactive)
same,GI50,ACHN,45 µM (inactive)
same,GI50,BT-549,> 100 µM (inactive)
same,GI50,CAKI-1,> 100 µM (inactive)
same,GI50,CCRF-CEM,> 100 µM (inactive)
same,GI50,EKVX,33 µM (inactive)
same,GI50,HCC 2998,> 100 µM (inactive)
same,GI50,HCT-116,> 100 µM (inactive)
same,GI50,HCT-15,> 100 µM
same,GI50,HL-60,> 100 µM (inactive)
same,GI50,HOP-62,> 100 µM (inactive)
same,GI50,HOP-92,> 100 µM (inactive)
same,GI50,HT-29,> 100 µM (inactive)
same,GI50,Hs-578T,> 100 µM (inactive)
same,GI50,IGROV-1,79.1 µM (inactive)
same,GI50,KM12,> 100 µM (inactive)
same,GI50,LOX IMVI,> 100 µM (inactive)
same,GI50,M14,> 100 µM (inactive)
same,GI50,MCF7,> 100 µM (inactive)
same,GI50,MDA-MB-231,> 100 µM (inactive)
same,GI50,MDA-MB-435,> 100 µM (inactive)
same,GI50,Malme-3M,> 100 µM (inactive)
same,GI50,NCI-H226,> 100 µM (inactive)
same,GI50,NCI-H23,> 100 µM (inactive)
same,GI50,NCI-H460,> 100 µM (inactive)
same,GI50,NCI-H522,> 100 µM (inactive)
same,GI50,NCI/ADR-RES,> 100 µM (inactive)
same,GI50,OVCAR-3,> 100 µM (inactive)
same,GI50,OVCAR-4,> 100 µM (inactive)
same,GI50,OVCAR-5,> 100 µM (inactive)
same,GI50,OVCAR-8,> 100 µM (inactive)
same,GI50,PC-3,> 100 µM (inactive)
same,GI50,RPMI-8226,> 100 µM (inactive)
same,GI50,RXF 393,> 100 µM (inactive)
same,GI50,SF-268,> 100 µM (inactive)
same,GI50,SF-295,> 100 µM (inactive)
same,GI50,SF-539,> 100 µM (inactive)
same,GI50,SK-MEL-28,> 100 µM (inactive)
same,GI50,SK-MEL-2,> 100 µM (inactive)
same,GI50,SK-MEL-5,> 100 µM (inactive)
same,GI50,SK-OV-3,> 100 µM (inactive)
same,GI50,SN12C,> 100 µM (inactive)
same,GI50,SNB-75,> 100 µM (inactive)
same,GI50,SR,21.7 µM (inactive)
same,GI50,SW-620,> 100 µM (inactive)
same,GI50,T47D,> 100 µM (inactive)
same,GI50,TK-10,> 100 µM (inactive)
same,GI50,U-251,> 100 µM (inactive)
same,GI50,UACC-257,> 100 µM (inactive)
same,GI50,UACC-62,> 100 µM (inactive)
same,GI50,UO-31,72.3 µM (inactive)
CNn1c(-c2ccc(C)cc2)n[nH]c1=O,GI50,786-0,> 100 µM (inactive)
same,GI50,A498,> 100 µM (inactive)
same,GI50,A549,> 100 µM (inactive)
same,GI50,ACHN,> 100 µM (inactive)
same,GI50,BT-549,> 100 µM (inactive)
same,GI50,CAKI-1,> 100 µM (inactive)
same,GI50,CCRF-CEM,92 µM (inactive)
same,GI50,COLO 205,> 100 µM (inactive)
same,GI50,EKVX,> 100 µM (inactive)
same,GI50,HCC 2998,> 100 µM (inactive)
same,GI50,HCT-116,> 100 µM (inactive)
same,GI50,HCT-15,> 100 µM
same,GI50,HOP-62,> 100 µM (inactive)
same,GI50,HOP-92,> 100 µM (inactive)
same,GI50,HT-29,> 100 µM (inactive)
same,GI50,Hs-578T,> 100 µM (inactive)
same,GI50,IGROV-1,> 100 µM (inactive)
same,GI50,K562,55.8 µM (inactive)
same,GI50,KM12,> 100 µM (inactive)
same,GI50,LOX IMVI,> 100 µM (inactive)
same,GI50,M14,> 100 µM (inactive)
same,GI50,MCF7,> 100 µM (inactive)
same,GI50,MDA-MB-231,> 100 µM (inactive)
same,GI50,MDA-MB-435,> 100 µM (inactive)
same,GI50,MOLT-4,> 100 µM (inactive)
same,GI50,Malme-3M,> 100 µM (inactive)
same,GI50,NCI-H226,> 100 µM (inactive)
same,GI50,NCI-H23,> 100 µM (inactive)
same,GI50,NCI-H460,> 100 µM (inactive)
same,GI50,NCI-H522,> 100 µM (inactive)
same,GI50,NCI/ADR-RES,> 100 µM (inactive)
same,GI50,OVCAR-3,> 100 µM (inactive)
same,GI50,OVCAR-4,> 100 µM (inactive)
same,GI50,OVCAR-5,> 100 µM (inactive)
same,GI50,OVCAR-8,> 100 µM (inactive)
same,GI50,PC-3,> 100 µM (inactive)
same,GI50,RPMI-8226,> 100 µM (inactive)
same,GI50,RXF 393,> 100 µM (inactive)
same,GI50,SF-268,> 100 µM (inactive)
same,GI50,SF-295,> 100 µM (inactive)
same,GI50,SF-539,> 100 µM (inactive)
same,GI50,SK-MEL-2,> 100 µM (inactive)
same,GI50,SK-MEL-5,> 100 µM (inactive)
same,GI50,SK-OV-3,> 100 µM (inactive)
same,GI50,SN12C,> 100 µM (inactive)
same,GI50,SNB-19,> 100 µM (inactive)
same,GI50,SR,68.5 µM (inactive)
same,GI50,SW-620,> 100 µM (inactive)
same,GI50,T47D,> 100 µM (inactive)
same,GI50,TK-10,> 100 µM (inactive)
same,GI50,U-251,> 100 µM (inactive)
same,GI50,UACC-257,> 100 µM (inactive)
same,GI50,UACC-62,> 100 µM (inactive)
same,GI50,UO-31,> 100 µM (inactive)
COc1ccc(/C=C2\N=C(SC)N(C)C2=O)cc1,GI50,786-0,68.7 µM (inactive)
same,GI50,A498,37.8 µM (inactive)
same,GI50,A549,63.2 µM (inactive)
same,GI50,ACHN,38.8 µM (inactive)
same,GI50,BT-549,> 100 µM (inactive)
same,GI50,CCRF-CEM,> 100 µM (inactive)
same,GI50,COLO 205,94.6 µM (inactive)
same,GI50,DU-145,> 100 µM (inactive)
same,GI50,HCT-116,75.2 µM (inactive)
same,GI50,HCT-15,64.3 µM
same,GI50,HL-60,27.5 µM (inactive)
same,GI50,HOP-62,96.8 µM (inactive)
same,GI50,HOP-92,> 100 µM (inactive)
same,GI50,HT-29,46.1 µM (inactive)
same,GI50,Hs-578T,22.8 µM (inactive)
same,GI50,IGROV-1,48 µM (inactive)
same,GI50,K562,50.9 µM (inactive)
same,GI50,LOX IMVI,75.2 µM (inactive)
same,GI50,M14,82.6 µM (inactive)
same,GI50,MCF7,49.4 µM (inactive)
same,GI50,MDA-MB-231,41.2 µM (inactive)
same,GI50,MDA-MB-435,51.4 µM (inactive)
same,GI50,NCI-H226,47.3 µM (inactive)
same,GI50,NCI-H23,> 100 µM (inactive)
same,GI50,NCI-H460,99.1 µM (inactive)
same,GI50,NCI/ADR-RES,86.9 µM (inactive)
same,GI50,OVCAR-3,46.1 µM (inactive)
same,GI50,OVCAR-4,39.6 µM (inactive)
same,GI50,OVCAR-5,95.7 µM (inactive)
same,GI50,OVCAR-8,> 100 µM (inactive)
same,GI50,PC-3,40.9 µM (inactive)
same,GI50,RPMI-8226,50 µM (inactive)
same,GI50,RXF 393,> 100 µM (inactive)
same,GI50,SF-268,28.1 µM (inactive)
same,GI50,SF-539,92 µM (inactive)
same,GI50,SK-MEL-28,> 100 µM (inactive)
same,GI50,SK-MEL-2,> 100 µM (inactive)
same,GI50,SK-MEL-5,42.3 µM (inactive)
same,GI50,SK-OV-3,97.9 µM (inactive)
same,GI50,SN12C,71.6 µM (inactive)
same,GI50,SNB-19,> 100 µM (inactive)
same,GI50,SNB-75,41.6 µM (inactive)
same,GI50,SW-620,80.2 µM (inactive)
same,GI50,T47D,42.6 µM (inactive)
same,GI50,TK-10,> 100 µM (inactive)
same,GI50,U-251,89.7 µM (inactive)
same,GI50,UACC-257,> 100 µM (inactive)
same,GI50,UACC-62,70.3 µM (inactive)
same,GI50,UO-31,27 µM (inactive)

# From ChEMBL document CHEMBL1201862, “PubChem BioAssay data set” (2004)
